Measurements as given in ChEMBL document CHEMBL1201862, “PubChem BioAssay data set” (2004).
Calls of active or inactive are those of the source.

How the values were obtained:
[1] = cytotoxicity in HEK-293T cells, dose response, cytotoxicity control for TCR NF-kB inhibitor project, luminescence, T-cell screen hits (AID 489026); assay type: functional, cell-based;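 note: cells exposed to compound about 14 hours before the viability readout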
[2] = target: Peroxisome proliferator-activated receptor gamma/Nuclear receptor coactivator 3 (Homo sapiens, UniProt P37231); test: TR-FRET dose response biochemical High Throughput Screening assay for agonists of the steroid receptor coactivator 3 (SRC-3) recruitment by the peroxisome proliferator-activated receptor gamma (PPAR gamma): non-selective agonists. [Related pubchem assays: 1301 (Confirmation screen.), 1048 (Primary screen.)]; assay type: functional
[3] = target: Peroxisome proliferator-activated receptor gamma/Nuclear receptor coactivator 2 (Homo sapiens, UniProt P37231); test: (§1) TR-FRET dose response biochemical High Throughput Screening assay for agonists of the steroid receptor coactivator 2 (SRC-2) recruitment by the peroxisome proliferator-activated receptor gamma (PPAR gamma): non-selective agonists. [Related pubchem assays: 1297, 1032 ]; assay type: functional
Peroxisome proliferator-activated receptor gamma/Nuclear receptor coactivator 2, sequence (P37231 whole entry): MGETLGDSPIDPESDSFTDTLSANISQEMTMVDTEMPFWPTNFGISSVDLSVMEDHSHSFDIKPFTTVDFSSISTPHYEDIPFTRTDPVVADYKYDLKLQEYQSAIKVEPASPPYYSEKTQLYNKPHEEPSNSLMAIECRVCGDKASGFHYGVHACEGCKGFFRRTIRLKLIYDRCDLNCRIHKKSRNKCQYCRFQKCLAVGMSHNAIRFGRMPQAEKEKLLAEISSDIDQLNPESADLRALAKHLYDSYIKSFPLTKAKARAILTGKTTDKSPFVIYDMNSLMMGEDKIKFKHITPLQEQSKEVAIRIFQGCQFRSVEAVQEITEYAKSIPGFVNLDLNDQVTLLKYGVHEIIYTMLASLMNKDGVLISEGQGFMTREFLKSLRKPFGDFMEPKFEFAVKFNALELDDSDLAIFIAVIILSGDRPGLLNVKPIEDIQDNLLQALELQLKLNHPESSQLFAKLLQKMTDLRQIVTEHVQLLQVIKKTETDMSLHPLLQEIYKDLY
Peroxisome proliferator-activated receptor gamma/Nuclear receptor coactivator 2, sequence (Q15596 whole entry, further chain): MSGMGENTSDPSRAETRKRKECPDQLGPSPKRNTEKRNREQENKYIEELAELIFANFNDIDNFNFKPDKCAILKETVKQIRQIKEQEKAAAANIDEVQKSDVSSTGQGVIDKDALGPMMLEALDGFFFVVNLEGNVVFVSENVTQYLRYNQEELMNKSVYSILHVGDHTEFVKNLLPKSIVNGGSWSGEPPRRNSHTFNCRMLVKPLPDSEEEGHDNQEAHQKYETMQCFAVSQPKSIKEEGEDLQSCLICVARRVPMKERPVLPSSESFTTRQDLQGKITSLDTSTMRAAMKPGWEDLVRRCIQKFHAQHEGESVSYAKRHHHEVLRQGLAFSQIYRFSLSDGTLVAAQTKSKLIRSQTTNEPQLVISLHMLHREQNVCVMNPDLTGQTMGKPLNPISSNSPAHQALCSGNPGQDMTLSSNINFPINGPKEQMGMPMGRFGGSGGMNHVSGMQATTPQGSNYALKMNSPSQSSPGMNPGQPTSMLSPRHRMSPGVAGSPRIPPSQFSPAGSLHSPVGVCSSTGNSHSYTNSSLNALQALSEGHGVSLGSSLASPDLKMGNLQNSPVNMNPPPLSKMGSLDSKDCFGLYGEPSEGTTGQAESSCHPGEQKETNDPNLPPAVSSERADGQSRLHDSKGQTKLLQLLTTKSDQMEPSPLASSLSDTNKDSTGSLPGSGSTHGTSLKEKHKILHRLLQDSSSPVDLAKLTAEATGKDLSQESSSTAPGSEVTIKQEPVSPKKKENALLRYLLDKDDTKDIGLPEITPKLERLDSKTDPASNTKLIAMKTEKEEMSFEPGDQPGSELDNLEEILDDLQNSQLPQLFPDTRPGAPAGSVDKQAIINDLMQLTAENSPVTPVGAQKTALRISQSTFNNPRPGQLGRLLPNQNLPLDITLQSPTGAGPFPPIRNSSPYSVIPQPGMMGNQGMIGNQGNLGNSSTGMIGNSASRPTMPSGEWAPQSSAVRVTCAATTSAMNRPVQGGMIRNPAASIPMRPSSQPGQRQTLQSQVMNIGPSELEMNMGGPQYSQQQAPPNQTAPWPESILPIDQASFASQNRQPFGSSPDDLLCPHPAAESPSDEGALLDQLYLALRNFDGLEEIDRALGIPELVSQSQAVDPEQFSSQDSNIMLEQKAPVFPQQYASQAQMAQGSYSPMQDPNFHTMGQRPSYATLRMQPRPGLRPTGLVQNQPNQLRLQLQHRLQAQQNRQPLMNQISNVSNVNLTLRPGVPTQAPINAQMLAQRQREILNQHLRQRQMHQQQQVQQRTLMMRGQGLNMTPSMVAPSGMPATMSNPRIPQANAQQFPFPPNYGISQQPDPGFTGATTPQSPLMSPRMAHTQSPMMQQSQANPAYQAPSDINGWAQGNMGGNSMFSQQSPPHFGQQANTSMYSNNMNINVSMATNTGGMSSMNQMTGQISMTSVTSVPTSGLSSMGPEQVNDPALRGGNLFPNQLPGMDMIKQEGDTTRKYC

[4] = target: Peroxisome proliferator-activated receptor gamma/Nuclear receptor coactivator 1 (Homo sapiens, UniProt P37231); test: as §1, with “1 (SRC-1)” for “2 (SRC-2)”, “assays (depositor defined):AID1300, AID1808, AID504735, AID631]” for “assays: 1297, 1032 ]”; assay type: protein assay
Peroxisome proliferator-activated receptor gamma/Nuclear receptor coactivator 1, sequence (P37231 whole entry): as the sequence (P37231 whole entry) above
Peroxisome proliferator-activated receptor gamma/Nuclear receptor coactivator 1, sequence (Q15788 whole entry, further chain): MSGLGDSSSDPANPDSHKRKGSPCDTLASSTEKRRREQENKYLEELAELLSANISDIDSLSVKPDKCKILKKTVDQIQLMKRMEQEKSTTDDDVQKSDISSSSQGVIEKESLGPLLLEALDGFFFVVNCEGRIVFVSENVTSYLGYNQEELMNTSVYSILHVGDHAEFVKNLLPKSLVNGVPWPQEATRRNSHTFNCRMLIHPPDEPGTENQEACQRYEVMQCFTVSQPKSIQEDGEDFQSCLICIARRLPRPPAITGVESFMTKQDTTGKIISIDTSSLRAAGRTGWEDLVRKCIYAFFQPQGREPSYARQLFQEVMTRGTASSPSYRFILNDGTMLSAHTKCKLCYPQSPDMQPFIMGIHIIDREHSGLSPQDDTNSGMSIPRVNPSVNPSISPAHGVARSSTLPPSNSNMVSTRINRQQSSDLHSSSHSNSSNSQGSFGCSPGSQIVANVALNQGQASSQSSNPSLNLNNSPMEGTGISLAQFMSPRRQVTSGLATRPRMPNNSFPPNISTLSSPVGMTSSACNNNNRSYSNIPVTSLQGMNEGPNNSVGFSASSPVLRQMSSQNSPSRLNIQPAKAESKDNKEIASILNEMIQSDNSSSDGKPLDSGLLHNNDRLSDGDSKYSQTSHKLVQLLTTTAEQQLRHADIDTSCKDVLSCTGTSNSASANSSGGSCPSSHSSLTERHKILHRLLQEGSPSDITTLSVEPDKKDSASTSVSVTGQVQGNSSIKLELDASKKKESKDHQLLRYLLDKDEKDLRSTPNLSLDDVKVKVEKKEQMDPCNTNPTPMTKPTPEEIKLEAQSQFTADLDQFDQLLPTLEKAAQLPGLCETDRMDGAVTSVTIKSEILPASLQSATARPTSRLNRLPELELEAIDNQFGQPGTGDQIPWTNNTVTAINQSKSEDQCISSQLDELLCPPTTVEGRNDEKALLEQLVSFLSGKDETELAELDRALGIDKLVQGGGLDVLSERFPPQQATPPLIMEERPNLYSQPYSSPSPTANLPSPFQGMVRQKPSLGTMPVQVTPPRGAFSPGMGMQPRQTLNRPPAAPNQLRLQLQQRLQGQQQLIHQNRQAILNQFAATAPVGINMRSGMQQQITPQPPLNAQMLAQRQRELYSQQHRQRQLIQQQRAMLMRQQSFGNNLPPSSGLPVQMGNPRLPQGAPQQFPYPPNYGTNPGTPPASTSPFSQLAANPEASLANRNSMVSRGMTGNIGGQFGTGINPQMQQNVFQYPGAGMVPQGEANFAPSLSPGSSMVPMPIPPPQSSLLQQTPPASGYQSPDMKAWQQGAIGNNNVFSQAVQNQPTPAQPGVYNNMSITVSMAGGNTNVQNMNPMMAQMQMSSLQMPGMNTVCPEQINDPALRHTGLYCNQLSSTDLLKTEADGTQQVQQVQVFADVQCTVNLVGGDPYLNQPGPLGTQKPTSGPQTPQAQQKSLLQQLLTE

[5] = NIH-3T3 fibroblast cytotoxicity, dose response, cytotoxicity control, cell-based, fluorescence, Alamar Blue, secondary assay (AID 2327); assay type: functional;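 note: NIH-3T3 mouse fibroblasts cultured with fluconazole at 8 µg/mL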
[6] = C. albicans growth with fluconazole, confirmation, fluorescence, retest (AID 2467); assay type: functional, cell-based
BJ [7] = test: cells; assay type: functional, cell-based; conditions: Homo sapiens
[8] = target: T1, Short transient receptor potential channel 4 (Mus musculus, UniProt Q9QUQ5); test: mouse TRPC4 channel inhibitors, dose response, cell-based, HEK293 TRPC4/mu-opioid, Fluo-4 calcium (AID 434942); assay type: functional;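 note: potency of inhibitors blocking the TRPC4 calcium response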
T1 sequence (Q9QUQ5 whole entry): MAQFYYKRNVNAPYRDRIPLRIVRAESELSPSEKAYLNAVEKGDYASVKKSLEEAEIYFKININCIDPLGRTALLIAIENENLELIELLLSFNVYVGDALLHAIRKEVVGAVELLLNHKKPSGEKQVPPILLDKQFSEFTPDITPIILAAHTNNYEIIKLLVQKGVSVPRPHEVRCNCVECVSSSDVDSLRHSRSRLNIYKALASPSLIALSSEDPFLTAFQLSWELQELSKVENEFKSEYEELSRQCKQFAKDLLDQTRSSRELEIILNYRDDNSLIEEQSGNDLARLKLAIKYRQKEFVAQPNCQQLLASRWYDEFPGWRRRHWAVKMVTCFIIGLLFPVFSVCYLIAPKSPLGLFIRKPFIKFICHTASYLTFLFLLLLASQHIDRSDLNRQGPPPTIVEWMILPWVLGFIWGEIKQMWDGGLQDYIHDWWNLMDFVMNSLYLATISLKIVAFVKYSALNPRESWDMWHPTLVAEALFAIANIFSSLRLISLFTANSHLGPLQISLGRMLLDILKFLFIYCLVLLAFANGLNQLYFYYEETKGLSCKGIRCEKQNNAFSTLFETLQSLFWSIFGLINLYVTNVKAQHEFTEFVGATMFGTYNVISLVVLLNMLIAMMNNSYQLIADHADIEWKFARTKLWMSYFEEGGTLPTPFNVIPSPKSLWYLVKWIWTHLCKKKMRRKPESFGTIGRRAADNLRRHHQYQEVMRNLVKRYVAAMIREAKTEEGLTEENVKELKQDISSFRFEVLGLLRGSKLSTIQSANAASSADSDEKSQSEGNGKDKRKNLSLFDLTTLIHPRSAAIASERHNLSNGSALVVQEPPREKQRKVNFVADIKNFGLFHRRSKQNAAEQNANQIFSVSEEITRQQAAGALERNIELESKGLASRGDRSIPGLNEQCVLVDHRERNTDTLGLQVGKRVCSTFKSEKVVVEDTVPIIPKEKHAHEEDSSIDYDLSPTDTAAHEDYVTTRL

[9] = inhibitors of firefly luciferase expression or activity, dose response, H4 neuroglioma cells, luminescence (AID 1990); assay type: functional, cell-based
[10] = inhibitors of SNCA 5'UTR-driven reporter translation, confirmation, H4 neuroglioma cells, luminescence (AID 1988); assay type: functional, cell-based
BJ [11] = test: cytotoxicity toward BJ-TERT fibroblasts, dose response, cell-based, RAS-independent, luminescence (AID 1933); assay type: functional; conditions: Homo sapiens
[12] = cytotoxicity toward DRD oncogenic fibroblasts, dose response, cell-based, non-viral oncogenic, luminescence (AID 1934); assay type: functional; conditions: Homo sapiens
[13] = Luminescence Cell-Based Dose Response HTS to Identify Inhibitors of 5'UTR Stem-Loop Driven Prion Protein mRNA Translation in H4 Neuroglioblastoma Cells. [Related pubchem assays: 1827 (Project Summary), 1813 (Primary HTS)]; assay type: functional
BJ [14] = test: cytotoxicity toward BJ-TERT-LT-ST fibroblasts, dose response, cell-based, RAS-independent, luminescence (AID 1935); assay type: functional; conditions: Homo sapiens;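 note: BJ fibroblasts immortalized with TERT plus LT and ST oncogenes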
[15] = target: T1, Short transient receptor potential channel 4; test: mouse TRPC4 channel activators, dose response, cell-based, HEK293 TRPC4/mu-opioid, Fluo-4 calcium (AID 434937); assay type: functional

SMILES	EC50 [2]	EC50 [3]	EC50 [4]	EC50 [8]	further results
Cc1cc(-c2ccc(C(C)C)c(S(=O)(=O)N3CCN(c4ccccc4)CC3)c2)on1					IC50 [1]: > 80 µM (inactive)
COc1cc(-n2c(=S)[nH]c3ccc(C)cc3c2=O)c(Cl)cc1Cl	> 79.4 µM (not active)	> 79.4 µM (not active)	> 79.4 µM (inactive)		
Cn1c(=S)[nH]c2scc(-c3cccs3)c2c1=O	> 79.4 µM (not active)	11.4 µM (not active)	10.5 µM (inactive)		EC50 [5]: 145 µM (inconclusive); EC50 [6]: 0.361 µM (active)
COc1ccc(OC)c(Nc2cc(C)nc3ccc(C)cc23)c1				5.96 µM (active)	EC50 (BJ [7]): 12.3 µM (active); EC50 [9]: > 120 µM (not active); EC50 [10]: 6.31 µM (active); EC50 (BJ [11]): 11.7 µM (active); EC50 [12]: 9.69 µM (active); EC50 [13]: 44.2 µM (active); EC50 (BJ [14]): 18.8 µM (active)
COc1ccc2nc(NS(=O)(=O)c3ccc(NC(C)=O)cc3)sc2c1				3.35 µM (active)	EC50 [15]: 3.76 µM (active)
CCCc1cc(O)nc(SCC(=O)Nc2sc3c(c2C#N)CCCC3)n1				4.73 µM (active)	
Cc1cc(NCc2ccccc2)nc(N2CCOCC2)n1				4.73 µM (active)	
CCOC(=O)C(C)Sc1nc2c(c(=O)[nH]c(=O)n2C)n1Cc1ccc(Cl)cc1 (stereo not given)				0.749 µM (active)	
C=CCSC1=Nc2cc(OC)c(OC)cc2C2=NC(=O)CN12	> 79.4 µM (not active)	> 79.4 µM (not active)	> 79.4 µM (inactive)		
